Measurements published in patent publication US20170067909A1, “ASSAY-READY RECOMBINANT CELLS TRANSIENTLY OVEREXPRESSING GENES ENCODING DRUG TRANSPORTER PROTEINS AND/OR DRUG METABOLIZING ENZYMES” (Corning Incorporated, priority 2012, published 2017).
Positions count from the first letter of the chain named. Read-outs that look alike come from different tables or passages of the source. Each block holds one compound with its values, some of them ahead of it.

What was measured:
rat Oatp1b2 = target: T1, rat Oatp1b2 (Rattus norvegicus, UniProt Q9QZX8)
T1 sequence (Q9QZX8 1-687): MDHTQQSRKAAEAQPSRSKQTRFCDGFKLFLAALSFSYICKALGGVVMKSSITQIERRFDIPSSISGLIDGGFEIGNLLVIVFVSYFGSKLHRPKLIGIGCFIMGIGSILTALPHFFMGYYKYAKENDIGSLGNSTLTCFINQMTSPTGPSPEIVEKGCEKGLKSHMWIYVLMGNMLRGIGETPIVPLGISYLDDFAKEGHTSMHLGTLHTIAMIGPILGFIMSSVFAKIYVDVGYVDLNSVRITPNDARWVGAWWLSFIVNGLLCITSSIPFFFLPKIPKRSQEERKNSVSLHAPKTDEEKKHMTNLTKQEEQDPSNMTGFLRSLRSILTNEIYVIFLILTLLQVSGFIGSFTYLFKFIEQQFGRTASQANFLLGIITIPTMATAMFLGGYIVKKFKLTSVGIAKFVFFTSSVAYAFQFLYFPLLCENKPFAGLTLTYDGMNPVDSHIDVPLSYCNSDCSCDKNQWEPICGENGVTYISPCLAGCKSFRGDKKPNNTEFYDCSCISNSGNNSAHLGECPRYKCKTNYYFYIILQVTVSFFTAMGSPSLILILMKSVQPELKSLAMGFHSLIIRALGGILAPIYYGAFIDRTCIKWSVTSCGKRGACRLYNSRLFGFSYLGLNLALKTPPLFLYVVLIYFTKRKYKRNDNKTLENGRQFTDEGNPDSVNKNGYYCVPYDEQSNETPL

OCT2 [1] = target: T2, OCT2 (Homo sapiens, UniProt O15244); settings: read-out: IC50, Literature Report; substrate Metformin; HEK293 Cells; Sumito I, et al., JPET, 2011; cited from earlier work
OCT2 [2] = target: T2, OCT2
OCT1 [3] = target: T3, OCT1 (Homo sapiens, UniProt O15245); settings: read-out: IC50, Literature Report; substrate Metformin; HEK293 Cells; Sumito I, et al., JPET, 2011; cited from earlier work
OCT1 [4] = target: T3, OCT1
OAT3 [5] = target: T4, OAT3 (Homo sapiens, UniProt Q8TCC7); settings: read-out: Km, SLC Transporter Cells; substrate 0.5 to 32 μM, incubation 1 min
T4 sequence (Q8TCC7 1-542): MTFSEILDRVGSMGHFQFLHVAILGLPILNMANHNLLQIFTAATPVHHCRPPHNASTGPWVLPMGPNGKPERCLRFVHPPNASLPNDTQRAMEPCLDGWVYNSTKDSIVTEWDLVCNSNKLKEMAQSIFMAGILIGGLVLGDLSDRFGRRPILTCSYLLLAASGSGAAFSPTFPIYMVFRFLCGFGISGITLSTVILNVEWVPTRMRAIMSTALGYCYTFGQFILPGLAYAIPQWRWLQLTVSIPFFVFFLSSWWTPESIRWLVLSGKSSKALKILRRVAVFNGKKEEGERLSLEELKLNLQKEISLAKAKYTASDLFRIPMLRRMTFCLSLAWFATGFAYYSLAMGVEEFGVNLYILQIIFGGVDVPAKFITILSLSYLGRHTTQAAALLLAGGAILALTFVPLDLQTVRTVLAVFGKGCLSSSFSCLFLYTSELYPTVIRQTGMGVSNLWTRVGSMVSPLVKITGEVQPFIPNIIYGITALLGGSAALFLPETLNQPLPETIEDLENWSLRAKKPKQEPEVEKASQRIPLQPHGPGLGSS

OAT3 [6] = target: T4, OAT3; settings: read-out: Km, Literature Report; HEK293 cells; Ueo H, et al., Biochem Pharmacol., 2005; cited from earlier work
MATE2K = MATE2K (Homo sapiens, UniProt Q86VL8); settings: 5 min, 10 µM, pH 7.4
MATE1 = target: T5, MATE1 (Homo sapiens, UniProt Q96FL8); settings: 5 min, 10 µM, pH 7.4
T5 sequence (Q96FL8 1-570): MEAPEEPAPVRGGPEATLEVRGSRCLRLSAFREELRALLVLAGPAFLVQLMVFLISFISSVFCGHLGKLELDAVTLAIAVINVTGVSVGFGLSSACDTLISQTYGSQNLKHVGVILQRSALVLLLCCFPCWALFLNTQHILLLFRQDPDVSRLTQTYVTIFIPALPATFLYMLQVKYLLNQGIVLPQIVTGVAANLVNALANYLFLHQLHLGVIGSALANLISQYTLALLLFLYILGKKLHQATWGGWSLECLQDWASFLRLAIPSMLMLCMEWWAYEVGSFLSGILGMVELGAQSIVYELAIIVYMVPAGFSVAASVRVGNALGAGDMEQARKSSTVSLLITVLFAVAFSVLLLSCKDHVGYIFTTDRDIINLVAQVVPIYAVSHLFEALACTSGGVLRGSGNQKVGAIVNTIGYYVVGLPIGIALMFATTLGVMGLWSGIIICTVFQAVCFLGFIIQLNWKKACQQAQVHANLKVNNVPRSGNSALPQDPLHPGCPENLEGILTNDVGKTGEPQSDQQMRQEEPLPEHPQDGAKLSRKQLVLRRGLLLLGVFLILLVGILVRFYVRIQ

OATP1B1*15 = target: T6, OATP1B1*15 (Homo sapiens, UniProt Q9Y6L6, N130D/V174A); settings: for uptake reduced to: human
T6 sequence (Q9Y6L6 1-691 N130D/V174A): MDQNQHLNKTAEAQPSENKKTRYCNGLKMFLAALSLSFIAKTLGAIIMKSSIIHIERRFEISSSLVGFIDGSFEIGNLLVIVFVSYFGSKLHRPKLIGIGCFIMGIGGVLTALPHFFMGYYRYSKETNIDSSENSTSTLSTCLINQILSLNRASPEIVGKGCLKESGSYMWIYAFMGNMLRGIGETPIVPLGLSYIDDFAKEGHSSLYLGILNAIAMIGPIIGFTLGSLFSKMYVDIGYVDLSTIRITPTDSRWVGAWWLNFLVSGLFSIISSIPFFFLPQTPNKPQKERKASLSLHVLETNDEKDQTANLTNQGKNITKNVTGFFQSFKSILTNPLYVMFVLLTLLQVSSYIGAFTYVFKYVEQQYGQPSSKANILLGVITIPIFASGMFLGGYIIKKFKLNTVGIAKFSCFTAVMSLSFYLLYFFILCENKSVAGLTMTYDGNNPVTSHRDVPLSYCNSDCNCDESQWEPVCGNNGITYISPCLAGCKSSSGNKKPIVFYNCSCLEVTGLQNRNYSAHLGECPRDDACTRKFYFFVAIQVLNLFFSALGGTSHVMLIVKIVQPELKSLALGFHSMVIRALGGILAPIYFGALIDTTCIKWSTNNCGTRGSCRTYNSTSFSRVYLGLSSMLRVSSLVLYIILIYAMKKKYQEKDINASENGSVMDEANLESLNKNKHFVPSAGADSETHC

OATP1B1*5 = target: T7, OATP1B1*5 (Homo sapiens, UniProt Q9Y6L6, V174A)
T7 sequence (Q9Y6L6 1-691 V174A): T6 sequence (Q9Y6L6 1-691 N130D/V174A) with D130N

[7] = HEK-293 cells overexpressing the transporter

T3 sequence (O15245 whole entry): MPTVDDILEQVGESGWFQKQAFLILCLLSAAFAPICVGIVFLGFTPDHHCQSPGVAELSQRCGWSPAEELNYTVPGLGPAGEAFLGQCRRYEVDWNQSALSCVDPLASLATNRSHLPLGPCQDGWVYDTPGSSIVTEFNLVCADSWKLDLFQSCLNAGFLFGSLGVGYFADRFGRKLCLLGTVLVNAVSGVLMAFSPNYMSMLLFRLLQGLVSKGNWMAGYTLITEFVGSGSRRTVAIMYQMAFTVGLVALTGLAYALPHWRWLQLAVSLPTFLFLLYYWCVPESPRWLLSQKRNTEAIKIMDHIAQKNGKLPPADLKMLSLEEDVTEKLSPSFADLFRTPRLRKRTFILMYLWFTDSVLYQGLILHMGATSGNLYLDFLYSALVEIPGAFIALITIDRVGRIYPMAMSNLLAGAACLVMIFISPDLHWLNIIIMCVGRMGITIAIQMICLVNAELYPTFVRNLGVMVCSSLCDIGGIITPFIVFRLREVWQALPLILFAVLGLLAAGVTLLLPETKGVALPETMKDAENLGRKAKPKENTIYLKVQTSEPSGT
Chain of MATE2K (Q86VL8 1-566 isoform Q86VL8-3): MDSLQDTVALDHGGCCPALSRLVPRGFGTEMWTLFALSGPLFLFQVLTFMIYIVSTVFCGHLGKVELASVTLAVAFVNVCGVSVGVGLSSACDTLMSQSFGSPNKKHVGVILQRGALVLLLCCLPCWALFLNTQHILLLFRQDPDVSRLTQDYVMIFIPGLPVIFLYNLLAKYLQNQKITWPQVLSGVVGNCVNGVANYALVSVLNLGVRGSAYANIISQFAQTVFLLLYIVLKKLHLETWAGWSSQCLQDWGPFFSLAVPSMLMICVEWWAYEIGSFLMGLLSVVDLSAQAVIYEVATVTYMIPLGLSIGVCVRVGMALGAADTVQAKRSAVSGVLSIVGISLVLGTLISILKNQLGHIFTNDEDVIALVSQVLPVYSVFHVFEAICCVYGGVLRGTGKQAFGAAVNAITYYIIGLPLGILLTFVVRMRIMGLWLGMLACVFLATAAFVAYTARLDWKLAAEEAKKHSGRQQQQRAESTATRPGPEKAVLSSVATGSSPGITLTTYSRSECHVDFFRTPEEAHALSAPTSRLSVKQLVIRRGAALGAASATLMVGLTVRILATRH
T2 sequence (O15244 whole entry): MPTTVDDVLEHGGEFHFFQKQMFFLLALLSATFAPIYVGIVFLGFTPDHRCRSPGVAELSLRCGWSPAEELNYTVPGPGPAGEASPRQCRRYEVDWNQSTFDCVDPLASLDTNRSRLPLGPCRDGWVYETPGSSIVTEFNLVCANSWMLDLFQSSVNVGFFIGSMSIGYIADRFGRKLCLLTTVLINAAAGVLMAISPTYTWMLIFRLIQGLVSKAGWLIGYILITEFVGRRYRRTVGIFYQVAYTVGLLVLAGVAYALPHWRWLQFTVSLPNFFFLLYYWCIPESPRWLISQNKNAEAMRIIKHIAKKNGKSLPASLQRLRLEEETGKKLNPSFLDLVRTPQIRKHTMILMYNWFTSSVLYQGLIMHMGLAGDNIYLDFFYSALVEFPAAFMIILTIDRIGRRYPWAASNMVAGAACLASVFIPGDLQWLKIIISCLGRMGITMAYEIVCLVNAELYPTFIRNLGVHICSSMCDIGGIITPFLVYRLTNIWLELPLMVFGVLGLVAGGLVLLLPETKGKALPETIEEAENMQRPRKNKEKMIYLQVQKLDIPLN

Structure (SMILES): CSCC[C@H](NC(=O)[C@H](Cc1ccc(OS(=O)(=O)O)cc1)NC(=O)[C@@H](N)CC(=O)O)C(=O)NCC(=O)N[C@@H](Cc1c[nH]c2ccccc12)C(=O)N[C@@H](CCSC)C(=O)N[C@@H](CC(=O)O)C(=O)N[C@@H](Cc1ccccc1)C(N)=O [CCK-8, cholecystokinin]
uptake of substrate (in words) (dog Oatp1b4; [7]): significant uptake
uptake of substrate (in words) (rat Oatp1b2; [7]): significant uptake

Structure (SMILES): CN/C(=N/CCSCc1nc[nH]c1C)NC#N [Cimetidine]
IC50 (OCT2 [1]): 124 µM
IC50 (OCT2 [2]): 195 µM
IC50 (OCT1 [3]): 104 µM
IC50 (OCT1 [4]): 230 µM

Structure (SMILES): C[C@]12CC[C@@H]3c4ccc(OS(=O)(=O)O)cc4CC[C@H]3[C@@H]1CCC2=O [E3S, Estrone-3-sulfate]
Km (OAT3 [5]): 4 µM
Km (OAT3 [6]): 6.3 µM

Structure (SMILES): CN(C)C(=N)N=C(N)N [Metformin]
UPTAKE ACTIVITY SLC transporter (MATE2K): 33.5 pmol/mg/min
Uptake Ratio (MATE2K): 6.5
UPTAKE ACTIVITY SLC transporter (MATE1): 71.4 pmol/mg/min
Uptake Ratio (MATE1): 12

Results, then the compound that gave them:

uptake activity / transport compared to OATP1B1*1a cells (in words) (OATP1B1*15): Significant decrease in uptake activity
uptake activity / transport compared to OATP1B1*1a cells (in words) (OATP1B1*5): Significant decrease in uptake activity
Structure (SMILES): CC(C)c1c(C(=O)Nc2ccccc2)c(-c2ccccc2)c(-c2ccc(F)cc2)n1CC[C@@H](O)C[C@@H](O)CC(=O)O [atorvastatin]

uptake reduced to (OATP1B1*15): less than 5%
Structure (SMILES): CC(C)n1c(/C=C/C(O)CC(O)CC(=O)O)c(-c2ccc(F)cc2)c2ccccc21 (stereo not shown) [fluvastatin]

uptake reduced to (OATP1B1*15): 40%
Structure (SMILES): O=C(O)C[C@H](O)C[C@H](O)/C=C/c1c(C2CC2)nc2ccccc2c1-c1ccc(F)cc1 [pitavastatin]

uptake of substrate (in words) (dog Oatp1b4): significant uptake
uptake of substrate (in words) (monkey Oatp1b1): significant uptake
uptake of substrate (in words) (rat Oatp1b2): significant uptake
Structure (SMILES): CC(C)c1nc(N(C)S(C)(=O)=O)nc(-c2ccc(F)cc2)c1/C=C/[C@@H](O)C[C@@H](O)CC(=O)O [rosuvastatin]
